This data set is described as follows: gradient 5% acetonitrile 3 min, to 50% in 2 min, to 85% in 15 min, held 3 min, 100 µL/min. To be noted: column: Zorbax Extend-C18 2.1 x 50 mm; eluents: water / acetonitrile, 0.1% formic acid. Put shortly: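 Retention times of pure standards were taken from adduct peaks that were selected by computer and manually inspected. Over 3 months, mixtures of ~100 molecules were run by HPLC–quadrupole time-of-flight mass spectrometry in positive and negative ionization mode. The Zorbax Extend-C18 column (2.1 × 50 mm, 1.8 μm) ran at 100 μL/min in water and acetonitrile, each containing 0.1% formic acid, with 40 μL dead volume and 900 μL dwell volume.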
`Cc1ccc(N2CCC(NC(=O)C(C)C)C2=O)cc1C` (centres undefined) gave an RP-LC retention time of 762 s. The figure for `Cc1cccc(-c2noc(C3CCCN3S(=O)(=O)c3ccc(C(C)C)cc3)n2)c1` (centres undefined) is 1330 s.

Regarding `Cc1cccc(C(=O)NCCc2c[nH]c3ccc(C)cc23)c1`, the RP-LC retention time was 890 s. Turning to `CCC(=O)N(C1CCOCC1)C1CCN(S(=O)(=O)c2ccc(C)c(C)c2)CC1`, the RP-LC retention time is 869 s. With `O=C(CC1CCN(C(=O)NC2CCCC2)CC1)N1CCCCC1` the figure was 695 s.

`Cc1csc(NC(=O)CN2CCC3(CC2)NC(=O)N(Cc2ccc(Cl)cc2)C3=O)n1` yielded an RP-LC retention time of 949 s. With `COc1ccc(NC(=O)CCNc2cnc3cnccn23)c(C)c1` the figure was 576 s; with `COc1ccc([N+](=O)[O-])cc1NC(=O)c1cnc(N2CCN(c3ncccn3)CC2)c2ccccc12`, 973 s. With `CCCC1c2nccn2CCCN1C(=O)c1cccn1C` (centres undefined) the figure was 599 s. With `COc1ccccc1C(=O)NCCc1nc2cccnc2n1C(C)C` the figure was 718 s; with `CCN1N=C(C(=O)N2CCOCC2)S(=O)(=O)c2cc(Cl)ccc21`, 760 s.

`Cc1cccc(NC(=O)C2C(=O)N(C)C3(C)CC2c2ccccc2O3)c1` (centres undefined) returned an RP-LC retention time of 995 s. For `O=C(c1cc2ccccc2[nH]1)N1CC2CN(S(=O)(=O)c3cccc(F)c3)CC(C1)O2`, the RP-LC retention time amounted to 862 s.

Consider `Cc1cc(NC(=O)C2CCCN(c3cnc4nccnc4c3)C2)ccc1F` (centres undefined), for which the RP-LC retention time was 769 s. In turn, `COc1cccc(N2CC(C)Cn3c2nc2c3c(=O)n(Cc3c(F)cccc3Cl)c(=O)n2C)c1` (centres undefined) came in with an RP-LC retention time of 1080 s. The figure for `CCCCCC[C@H]1C(=O)O[C@H](C)[C@H](NC(=O)c2cccc(NC=O)c2O)C(=O)O[C@@H](C)[C@@H]1OC(=O)CC(C)C` is 1100 s; for `O=C(Nc1ccccc1)N1CCC(OCc2ccccc2)C1` (centres undefined) it is 837 s; for `O=C(NCCn1cnc2cc(C(=O)N3CCCC3)ccc21)Nc1ccc2c(c1)CCC2` it is 645 s.

The compound `O=S(=O)(c1ccc(Br)cc1)N1CCCC(COCc2ccccc2)C1` (centres undefined) showed an RP-LC retention time of 1220 s. `O=C(NCc1ccccn1)C1c2ccccc2C(=O)N(C2CCCC2)C1c1cccs1` (centres undefined) displayed an RP-LC retention time of 709 s. Consider `Cc1cc(C)cc(N2CCC(NC(=O)c3ccccc3)C2=O)c1` (centres undefined), for which the RP-LC retention time was found to be 857 s. The figure for `O=C(C1=CN(c2cc(F)cc(F)c2)c2ccccc2S1(=O)=O)N1CCCC1` is 786 s; for `CN(C)c1ccc(CNC(=O)C2CCN(S(=O)(=O)c3cn(C)cn3)CC2)cc1` it is 550 s; for `COc1ccc(NC(=O)C2CCN(S(=O)(=O)c3cc(C(=O)N4CCCC4)n(C)c3)CC2)cc1` it is 729 s. With `Cc1ccc2c(=O)c(C(=O)N3CCCC3)cn(CC(=O)Nc3ccc(F)cc3F)c2n1` the figure was 692 s. The figure for `CCCNC(=O)C1CCN(c2ccc(SCC(=O)Nc3ccc(OC)cc3)nn2)CC1` is 611 s; for `O=C(c1cnccn1)N1CCC2(CC1)N=C(c1ccccc1)NO2` it is 641 s; for `Cc1cc(N2CCN(C(=O)C3CCCCC3)CC2)nc(N2CCCC2)n1` it is 672 s. Regarding `COc1cc(OC)cc(-c2nc(-c3cn(Cc4ccccc4)nn3)no2)c1`, the RP-LC retention time amounted to 1000 s.

Turning to `CCOC(=O)c1c(C)oc2nc(C)nc(NCC3CCN(Cc4ccc(F)cc4)CC3)c12`, the RP-LC retention time was determined as 712 s.

`COCCNC(=O)C1CCN(c2nc3ccc(-c4ccsc4)nc3s2)CC1`: the RP-LC retention time amounted to 774 s. The figure for `Cc1cc(=O)n2c(-c3cccc(NC(=O)Cc4cccs4)c3)csc2n1` is 696 s; for `O=C1Nc2cc(C(=O)N3CCC(Cc4ccccc4)CC3)ccc2N2CCCCC12` (centres undefined) it is 1020 s; for `CNC(=O)c1csc(NC(=O)Cc2ccc(OC)cc2)n1` it is 634 s. With `O=C(Nc1cccc(Cl)c1)c1c(O)c2cccnc2n(-c2ccc(F)cc2)c1=O` the figure was 1320 s; with `Cc1ccc2nc(-c3ccc(NC(=O)Cn4cnc(C)cc4=O)cc3)sc2c1`, 762 s. The figure for `Cc1cc(C(=O)N2CCC(c3cc(N)on3)CC2)c(C)o1` is 667 s.

Regarding `Cc1nnc(C2CC3(CCN(CCCO)CC3)CN2Cc2ccccc2)o1` (centres undefined), the RP-LC retention time was 577 s. In the case of `COCCn1cc(C(=O)Nc2cccc(C(C)=O)c2)c2nn(-c3ccccc3)c(=O)c-2c1`, the RP-LC retention time was found to be 812 s. `COCc1noc([C@@H]2CN(Cc3cccc(OC)n3)C[C@H]2COC)n1` returned an RP-LC retention time of 612 s. The compound `Cc1ccccc1Oc1nccn2c(=O)n(CC(=O)Nc3ccc(F)cc3)nc12` registered an RP-LC retention time of 838 s. The figure for `Cc1nc(CCNC(=O)C2CCN(S(=O)(=O)c3ccc(CC(C)C)cc3)CC2)cs1` is 917 s; for `CCCN1C(=O)c2cc(S(=O)(=O)Nc3ccccc3OC)ccc2Oc2cccnc21` it is 1080 s. With `CCn1cnc(S(=O)(=O)N2CCC(C(=O)Nc3cc(OC)ccc3OC)CC2)c1` the figure was 728 s. The figure for `O=S(=O)(c1ccccc1F)N1CC(F)(F)C[C@H]1CN1CCc2ccccc2C1` is 738 s; for `CCN(CC)C(=O)c1c2c(cn(-c3ccc(F)cc3)c1=O)C(=O)CC(C)(C)C2` it is 759 s. Turning to `COc1ccccc1CNS(=O)(=O)c1ccc2c(c1)CCCC(=O)N2`, the RP-LC retention time was determined as 721 s. The figure for `O=C(Cn1cnc2nc3c(cc2c1=O)CCCC3)N1CCN(c2cccc(C(F)(F)F)c2)CC1` is 881 s; for `CC(C)Cn1cc(CCNS(=O)(=O)c2ccc(F)c(Cl)c2)c2cccnc21` it is 1000 s; for `Cc1cc(F)ccc1NC(=O)C1CCN(S(=O)(=O)c2ccc3c(c2)sc(=O)n3C)CC1` it is 844 s. The figure for `CC(C)(C)c1ccc(C(=O)NC2(c3nc(-c4ccncc4)no3)CCCCC2)cc1` is 1190 s; for `O=C1CS(=O)C2(CCNCC2)N1Cc1cccc(F)c1` (centres undefined) it is 566 s.

`O=C(CC1CCCC1)N1CCC(c2noc(-c3ccncc3)n2)C1` (centres undefined) registered an RP-LC retention time of 786 s. On to `CCC1CN2C=Nc3oc(C)c(C(=O)NCCc4ccccc4)c3C2=N1` (centres undefined), for which the RP-LC retention time turned out to be 666 s. The compound `CCOC(=O)C1CCN(CC(O)COc2cc(C)cc(C)c2C)CC1` (centres undefined) showed an RP-LC retention time of 597 s. Take `O=C(O)c1nnn(-c2ccccc2F)c1-c1ccccn1`: the RP-LC retention time was found to be 657 s. `O=C(NCCc1c[nH]c2ccccc12)c1cc(S(=O)(=O)N2CCSCC2)ccc1Cl`: the RP-LC retention time is 925 s. The figure for `Cc1oc(C(=O)O)cc1COc1ccc2c(oc(=O)c3ccccc32)c1C` is 927 s. `Cc1nc(N2CCN(c3ccccn3)CC2)nc2c1C(=O)CC(c1cccs1)C2` (centres undefined) displayed an RP-LC retention time of 732 s.

`COc1cc2c(cc1CNC(=O)Cn1cc(C(=O)C(C)C)c3ccccc31)OCCCO2`: the RP-LC retention time was 893 s. Compound `O=C(c1cc2ccccc2[nH]1)N1CCC2(CC1)N=C(c1ccc(Br)cc1)NO2` gave an RP-LC retention time of 959 s.

For the compound `COc1ccc2c(c1)C1(CCN(C(=O)Cc3ccccc3Cl)C1)C(=O)N2` (centres undefined), the RP-LC retention time turned out to be 773 s. Compound `COc1ccc(-c2noc(C3CC(=O)N(c4ccc(C)c(C)c4)C3)n2)c(OC)c1` (centres undefined) had an RP-LC retention time of 932 s. With `CCOc1ccc2nc(NC(=O)Cn3nc(C(=O)N4CCCCC4)c4ccccc43)sc2c1` the figure was 944 s; with `O=C(CC1CCN(C(=O)NCc2ccccc2)CC1)NCc1ccc(F)cc1`, 737 s. Turning to `Cc1nc(C2(C)CCN(S(=O)(=O)c3ccc(C(C)C)cc3)CC2)no1`, the RP-LC retention time amounted to 1050 s. With `CCC1(c2ccccc2)NC(=O)N(C)C1=O` (centres undefined) the figure was 794 s; with `COc1ccc(-c2noc(C3(NC(=O)COc4ccccc4)CCCCC3)n2)cc1`, 1170 s; with `Cc1sc(-c2noc(C3CC3)n2)cc1S(=O)(=O)N1CCC(C(=O)NCc2ccco2)CC1`, 945 s. The figure for `Cc1ccc(CCNC(=O)C2CCN(C(=O)c3sccc3-n3cccc3)CC2)cc1` is 882 s; for `O=C(C1CCN(S(=O)(=O)c2ccc(-c3noc(C4CC4)n3)cc2)CC1)N1CCCC1` it is 859 s. The compound `O=C1CC(CNS(=O)(=O)c2cccnc2)CN1c1ccc(Cl)cc1` (centres undefined) yielded an RP-LC retention time of 694 s.

With `O=C(Nc1ccccc1C(F)(F)F)c1csc(-c2ccc(N3CCCC3)nc2)n1`, the RP-LC retention time amounted to 890 s. With `O=C(CC1CCCCC1)N1CCC(F)(C(=O)N2CCCC2)CC1` the figure was 806 s. Take `CNC(=O)NCCC1CCN(S(=O)(=O)c2ccc(C)cc2)CC1`: the RP-LC retention time came to 708 s.

Compound `CSc1ccc(NC(=O)CN2C(=O)C3CCCN3C(=O)c3cc(C)ccc32)cc1` (centres undefined) had an RP-LC retention time of 785 s. The figure for `COc1cc(C(=O)N2CCN(c3cc(=O)n(C(C)C)c(=O)n3C(C)C)CC2)cc(OC)c1OC` is 800 s; for `Cc1nn(CC(=O)NCC2CCN(Cc3ccc(Cl)cc3)CC2)c(=O)c2noc(C)c12` it is 617 s. With `Cc1ccc(CNC(=O)N2CCCC(OCc3nc(C)no3)C2)cc1` (centres undefined) the figure was 770 s.

The values above are taken from the METLIN SMRT retention time set (Domingo-Almenara et al. 2019).
